Data from publication PMC9253215, “A new strategy: identification of specific antibodies for neutralizing epitope on SARS-CoV-2 S protein by LC-MS/MS combined with immune repertoire” (Molecular Biomedicine, 2022).
Ends that are not written are not given here.

Assays:
S1 protein = target: T1, S1 protein (Severe acute respiratory syndrome coronavirus 2, UniProt P0DTC2); assay: biochemical; format: binding, SARS-CoV-2
T1 construct: Purified S1 protein was first immobilized on a series S sensor chip protein A; purchased OkayBio

SARS-CoV-2 pseudovirus = format: cell-based

Sequence	Kd (S1 protein) [µM]	neutralizing activity against SARS-CoV-2 by IFA assay (SARS-CoV-2)	IC50 (SARS-CoV-2; 24 h) [mg/L]	neutralizing ability by authentic virus neutralization assays (SARS-CoV-2)	neutralizing ability by pseudovirus neutralizing assay (SARS-CoV-2 pseudovirus)
ARESLYDFDGSGYVDALDV [CDR3 peptide 11]	0.262				
VRERISYFDHWGQG [CDR3 peptide 53]		obvious neutralizing activity			
ARDVSSLYGGNSDDY [CDR3 peptide 24]		no neutralizing activity			
EAWDVDNRVFGGGTR [CDR3 peptide 51]		obvious neutralizing activity	1250 to 2500		
YYCQQYDNLSGT [CDR3 peptide 44]		modestly lower neutralizing activity		showed neutralizing ability	showed neutralizing ability
AKDFRQYCSSTTCYDLDY [CDR3 peptide 21]		obvious neutralizing activity		showed neutralizing ability	showed neutralizing ability
ARERADDYSNYCWFDP [CDR3 peptide 12]		obvious neutralizing activity		showed neutralizing ability	showed neutralizing ability
ARDIVVPAAMGEIGGWFDP [CDR3 peptide 16]	24.1				
YYCQSYDSSNVV [CDR3 peptide 47]		modestly lower neutralizing activity		showed neutralizing ability	showed neutralizing ability
VRYSPEPAVLITEGYFD [CDR3 peptide 4]		modestly lower neutralizing activity		showed neutralizing ability	showed neutralizing ability
TTDRYQLLWAG [CDR3 peptide 22]		obvious neutralizing activity		showed neutralizing ability	showed neutralizing ability
